Measurements taken from patent publication US11884667B1, “Substituted pyrrolo[2,3-c][2,7]naphthyridines as CK2 inhibitors” (KING FAISAL UNIVERSITY, priority 2023, dated 2024).

Tests used:
HCT116 (colon) = experiment: In vitro cytotoxic activity (MTT) assay, HCT116; assay type: cell-based; conditions: Homo sapiens, HCT-116, 96 hours exposure, read-out: IC50, 50% inhibition of cell proliferation
Procedure: (§1) Compounds 1-15 were screened for their in vitro cytotoxic activity utilizing a 3-(4,5-dimethyl-thiazol-2-yl)-2,5-diphenyltetrazolium bromide (MTT) assay against selected cancer human cell lines consisting of PC3 (prostate), HCT116 (colon), A375 (melanoma), H1299 (lung), MIAPaCa-2 (pancreas), HL60 (leukemia), MCF7 (breast), MDA-MB-231 (breast) (T. Mosmann, J. Immunol. Meth., 1983, 65, 55-63). The cells were cultured at 37° C. in RMPI1640 medium supplemented with 10% fetal bovine serum, 50 IU/mL penicillin, and 50 μg/mL streptomycin in a 5% CO2 incubator. All cells were sub-cultured 3 times/week by trypsinization. Viable cells were seeded and allowed to adhere for 12 h before a test drug was added in 96-well plates at an initial density of 1.0×10^5 cells/mL. Tumour cell lines were separately exposed to various concentrations of the tested compounds followed by incubation at a temperature of 37° C. during 96 h inside a medium of fresh RMPI 1640. Cells were subsequently incubated at 37° C. using MTT at 0.5 mg/mL during 4 h. After removal of supernatant, formazan crystals were dissolved in isopropanol and the optical density was measured at 570 nm. CX-4945 was used as a positive control.

PC3 (prostate) = experiment: In vitro cytotoxic activity (MTT) assay, PC3; assay type: cell-based; conditions: Homo sapiens, 96 hours exposure, read-out: IC50, 50% inhibition of cell proliferation
Procedure: as §1

HL60 (leukemia) = experiment: In vitro cytotoxic activity (MTT) assay, HL60; assay type: cell-based; conditions: Homo sapiens, HL-60, 96 hours exposure, read-out: IC50, 50% inhibition of cell proliferation
Procedure: as §1

[1] = target: T1, recombinant human CK2 (RRββ-holoenzyme) (Homo sapiens, UniProt P68400); experiment: CK2 kinase assay ([γ-33P]ATP, filter plate); assay type: biochemical; conditions: final ATP 15 μM, 10 min at 30° C.; read-out: protein kinase CK2 IC50
T1 construct: purchased Millipore
T1 sequence (P68400 whole entry): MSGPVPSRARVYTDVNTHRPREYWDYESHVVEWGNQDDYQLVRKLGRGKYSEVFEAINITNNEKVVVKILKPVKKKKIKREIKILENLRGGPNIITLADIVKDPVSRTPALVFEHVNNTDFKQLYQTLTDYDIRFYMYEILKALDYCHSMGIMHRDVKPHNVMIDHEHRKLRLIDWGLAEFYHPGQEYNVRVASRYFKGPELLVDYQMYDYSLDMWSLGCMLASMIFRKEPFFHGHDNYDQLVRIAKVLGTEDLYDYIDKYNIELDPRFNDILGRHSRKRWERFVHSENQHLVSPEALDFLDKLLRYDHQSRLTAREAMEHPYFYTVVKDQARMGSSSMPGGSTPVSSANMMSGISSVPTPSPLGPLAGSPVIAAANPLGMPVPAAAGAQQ
T1 sequence (P67870 whole entry partner): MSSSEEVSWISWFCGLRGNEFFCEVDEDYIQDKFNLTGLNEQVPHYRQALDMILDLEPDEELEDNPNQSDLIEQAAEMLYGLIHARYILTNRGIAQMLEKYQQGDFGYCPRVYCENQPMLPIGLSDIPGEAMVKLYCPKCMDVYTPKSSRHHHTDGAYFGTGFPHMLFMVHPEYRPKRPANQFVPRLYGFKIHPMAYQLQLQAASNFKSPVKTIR
Procedure: CK2 Kinase Assay was conducted using the protocol as described in Pierre F. et al; J. Med. Chem. 2011, 54, 635-654. The tested compounds in aqueous solution were added at a volume of 10 μL to a reaction mixture comprising 10 μL of assay dilution buffer (ADB; 20 mM MOPS, pH 7.2, 25 mM β-glycerol phosphate, 5 mM EGTA, 1 mM sodium orthovanadate, and 1 mM dithiothreitol), 10 μL of substrate peptide (RRRDDDSDDD, dissolved in ADB at a concentration of 1 mM), 10 μL of recombinant human CK2 (RRββ-holoenzyme, 25 ng dissolved in ADB; Millipore). Reactions were initiated by the addition of 10 μL of ATP solution (90% 75 mMMgCl2, 75 μM ATP (final ATP concentration:15 μM) dissolved in ADB; 10% [γ-33P] ATP (stock 1mCi/100 μL; 3000 Ci/mmol (Perkin-Elmer) and maintained for 10 min at 30° C. The reactions were quenched with 100 μL of 0.75% phosphoric acid and then transferred to and filtered through a phosphor cellulose filter plate (Millipore). After washing each well five times with 0.75% phosphoric acid, the plate was dried under vacuum for 5 min and, following the addition of 15 μL of scintillation fluid to each well, the residual radioactivity was measured using a Wallac […]. The IC50 values were derived from eight concentrations of test inhibitors.

MIAPaCa-2 (pancreas) = experiment: In vitro cytotoxic activity (MTT) assay, MIAPaCa-2; assay type: cell-based; conditions: Homo sapiens, MIA PaCa-2, 96 hours exposure, read-out: IC50, 50% inhibition of cell proliferation
Procedure: as §1

A375 (melanoma) = experiment: In vitro cytotoxic activity (MTT) assay, A375; assay type: cell-based; conditions: Homo sapiens, A-375, 96 hours exposure, read-out: IC50, 50% inhibition of cell proliferation
Procedure: as §1

MDA-MB-231 (breast) = experiment: In vitro cytotoxic activity (MTT) assay, MDA-MB-231; assay type: cell-based; conditions: Homo sapiens, 96 hours exposure, read-out: IC50, 50% inhibition of cell proliferation
Procedure: as §1

MCF7 (breast) = experiment: In vitro cytotoxic activity (MTT) assay, MCF7; assay type: cell-based; conditions: Homo sapiens, 96 hours exposure, read-out: IC50, 50% inhibition of cell proliferation
Procedure: as §1

H1299 (lung) = experiment: In vitro cytotoxic activity (MTT) assay, H1299; assay type: cell-based; conditions: Homo sapiens, NCI-H1299, 96 hours exposure, read-out: IC50, 50% inhibition of cell proliferation
Procedure: as §1

IC50 [1]: 16 nM
SMILES: O=C(O)c1cc2c(nc(Nc3cccc(Cl)c3)c3cnccc32)[nH]1 [Compound 1, 5-((3-chlorophenyl)amino)-3H-pyrrolo[2,3-c][2,7]naphthyridine-2-carboxylic acid]
IC50 (HCT116 (colon)): 900 nM
IC50 (PC3 (prostate)): 2600 nM
IC50 (HL60 (leukemia)): 2400 nM
IC50 (MIAPaCa-2 (pancreas)): 800 nM
IC50 (A375 (melanoma)): 2700 nM
IC50 (MDA-MB-231 (breast)): 4100 nM
IC50 (MCF7 (breast)): 3300 nM
IC50 (H1299 (lung)): 1100 nM
